In PMC10096842, “Identification of Flavone Derivative Displaying a 4′-Aminophenoxy Moiety as Potential Selective Anticancer Agent in NSCLC Tumor Cells” (Molecules, 2023):

Experiments:
[1] = tested on: human dermal fibroblasts (HDF); experiment: MTT cell viability assay, HDF; format: cell-based; settings: Fibroblast, 72 h
Experimental: (§1) The human non-small cell lung cancer (NSCLC) and Human Dermal Fibroblasts (HDF) cell lines were all obtained from the American Type Culture Collection (ATCC). The H1975 (CRL-5908™) cell line was grown in RPMI 1640 medium (ECB2000) while the A549 (CCL-185™) and HDF were grown in complete DMEM medium (ECM0095) All cultures were supplemented with 10% fetal bovine serum (FBS), 2 mM L-glutamine, 100 U/mL penicillin, and 100 µg/mL streptomycin,. All cell lines were routinely maintained in 75 cm^2 flasks in a cell incubator at 37 °C, 5% CO2, and 95% relative humidity. The cell cultures were detached by trypsinization with 0.5% trypsin in PBS containing 0.025% EDTA. All cell culture reagents were supplied by Euroclone (Milan, Italy).
(§2) The number of metabolically active cells, and thus cell viability, was assessed by a 3-(4,5-dimethylthiazol-2-yl)-2,5-diphenyltetrazolium bromide (MTT) assay as previously described. The NSCLC cell lines (A549 and H1975) and HDF were seeded in 96-well plates to reach 50% confluence at 24 h; then, the medium was removed and replaced with 0.2 mL of fresh culture medium containing increasing compound concentrations (0–160 µM). After 72 h, the medium from each well was removed and replaced with fresh medium supplemented with MTT at a final concentration of 200 µg/mL. After incubation for 4 h at 37 °C, 0.2 mL of DMSO was added to each well followed by multiwell shaking for 4 min. The absorbance was read on a multiwell scanning microplate reader (BioTek Synergy HT MicroPlate Reader Spectrophotometer, BioTek Instruments Inc., Winooski, VT, USA) at 570 nm using the extraction buffer as a blank. The optical density in the control group (untreated cells) was considered as 100% viability. The relative cell viability (%) was calculated as (OD570 of treated samples/OD570 of untreated samples) × 100. Dose-dependent curves were therefore generated for the cytotoxic studies. The 50% inhibiting concentration (IC50) was determined by non-linear regression analysis with a three-parameter fit by utilizing SigmaPlot 12.0 Software, USA, Systat Software, Inc. SigmaPlot for Windows. Each experiment was performed at least five times in triplicate.

H1975 NSCLC cells = experiment: MTT cell viability assay, H1975; format: cell-based, human; settings: for IC50: H1975, 72 h, MTT
Experimental: as §1, §2

A549 cells = experiment: Annexin V-FITC/PI apoptosis flow cytometry, A549; format: cell-based, human
Experimental: (§3) Apoptosis was analyzed by flow cytometry using an Annexin V-FITC apoptosis detection kit (Biolegend, San Diego, CA, USA), according to the manufacturer’s instructions. A549, H1975, and HDF cells were treated with […] concentrations of APF-1 (1.5 and 3 µM). […] Briefly, control and treated cells were trypsinized, washed twice with ice-cold PBS, and resuspended in 1X Annexin binding buffer at a final concentration of 1.0 × 10^6 cell/mL. A total of 5 µL Annexin V-FITC and 10 µL Propidium Iodide (PI) were added to the cell suspension and the mixture was incubated for 15 min at rt in the dark. Samples were analyzed using the Guava EasyCyte flow cytometer (Merk-Millipore, Louis Missouri, USA). A total of 5000 events were acquired for each sample. Annexin V-FITC was detected as a green fluorescence (λex = 488 nm; λem = 516 nm) and PI was detected as a red fluorescence (λex = 535 nm; λem = 617 nm). Early apoptosis is defined by Annexin V+/PI− staining, late apoptosis is defined by Annexin V+/PI+ staining, and necrosis is defined by Annexin V−/PI+ staining.

[2] = Annexin V-FITC/PI apoptosis flow cytometry, HDF; format: cell-based, human; settings: human, HDF cells, HDF, 24 h, read-out: live/viable (Annexin V−PI−) cells
Experimental: as §3

HDF cells [3] = experiment: Annexin V-FITC/PI apoptosis flow cytometry, HDF; format: cell-based, human
Experimental: as §3

HDF cells [4] = experiment: Cell cycle analysis (PI, flow cytometry), HDF; format: cell-based, human; settings: 1.5 and 3 µM, 24 h
Experimental: Cell cycle analyses were performed by using a Guava easyCyte flow cytometer (Merk-Millipore, MA, USA) and the DNA content was determined by propidium iodide (PI) method as previously described. Briefly, A549, H1975, and HDF were treated with APF-1 at 1.5 and 3 µM concentrations for 24 h. Cells were harvested, washed twice with cold PBS, and fixed with 70% ice-cold ethanol and kept at […] for 2 h. The fixed cells were centrifugated at 4 °C and suspended in a master mix solution containing PBS, PI (40 µg/mL), and RNase (100 µg/mL) for 30 min at 37 °C in the dark. Samples were run through the Guava easyCyte flow cytometer set to internal cell cycle analysis protocol and 5000 cells per sample were measured. The percentage of cell cycle phases (G0/G1, S, and G2/M) was quantified using MultiCycle AV Cell Cycle in FCS Express 7 software (DeNovo Software, Pasadena, CA, USA). The experiment was performed three times in triplicate.

[5] = tested on: p21^waf1/cip1 protein level in A549 cells; experiment: Western blot of p21 expression, A549; format: cell-based, human; settings: A549, higher APF-1 concentration (3 µM), 24 h
Experimental: Analysis of cell extracts (20 µg total proteins) was performed using SDS-PAGE 12% (Bio-Rad Laboratories, Hercules, CA, USA). Electrophoresis was carried out under reducing conditions, where uniformly negatively charged proteins move according to their mass. The proteins were then transferred to a PVDF membrane using the Trans-Blot Turbo instrument (Bio-Rad Laboratories, USA), after which the membrane was blocked with Every Blot Blocking Buffer (Bio-Rad Laboratories, USA). P21 protein levels were analyzed by Western blotting using a specific rabbit monoclonal primary antibody that specifically recognizes p21 protein (ab109199, Cambridge, MA, USA), and a secondary antibody anti-rabbit HRP (TA130023, OriGene Technologies, Rockville, MD 20850, USA) and detected by chemiluminescence using the Chemidoc device (Bio-Rad Laboratories, USA). […] GADPH protein levels were analyzed by Western blotting using a specific rabbit monoclonal primary antibody that specifically recognizes this protein (ARC0205, catalog number MA535235, Thermo Scientific, Waltham, MA, USA) and secondary antibody anti-rabbit HRP (TA130023, OriGene Technologies, Rockville, MD 20850, USA), also in this case detected by chemiluminescence with the Chemidoc instrument (Bio-Rad Laboratories, USA).

## Nc1ccc(Oc2ccc3oc(-c4cccc(Oc5ccccc5)c4)cc(=O)c3c2)cc1 [APF-1]
[1]
  IC50: 62000 ± 6000 nM
H1975 NSCLC cells; H1975
  SI increase compared with doxorubicin: ~ 4.5 fold
H1975 NSCLC cells
  IC50: 2300 ± 200 nM
H1975 NSCLC cells; Homo sapiens, NCI-H1975, 72 h
  IC50: 2000 nM
A549 cells; A549, 3 µM, 24 h
  increase in early apoptosis with respect to untreated cells: 2 fold
A549 cells; Homo sapiens, A549, 24 h, A549, 1.5 µM, 24 h, read-out: live/viable (Annexin V−PI−) cells
  viability at 1.5 µM: 86%
A549 cells; Homo sapiens, A549, 24 h, A549, 3 µM, 24 h, read-out: live/viable (Annexin V−PI−) cells
  viability at 3 µM: 73%
A549 cells; cancer cells (A549), Figure 3D
  induction of apoptosis (sum of early and late apoptosis) with respect to untreated cells: about 4 times
[2]; 1.5 µM
  viability at 24 h, 1.5 µM: 92%
[2]; 3 µM
  viability at 24 h, 3 µM: 86%
HDF cells [3]; HDF, 1.5 and 3 µM, 24 h
  effect on the number of late apoptotic cells: did not detect any effect
HDF cells [3]; HDF, highest APF-1 concentration (3 µM), 24 h
  increase in early apoptosis: 4.7 fold
HDF cells [3]; fibroblasts, Figure 3D
  induction of apoptosis (sum of early and late apoptosis) compared with cancer cells: lower
HDF cells [4]
  effect on cell cycle profile: not affected
[5]
  increase in p21^waf1/cip1 expression with respect to untreated cells: 1.5 fold
